Test results: US6239111A, “In vivo method of improving survival rate of brain neurons” (Wakunaga Pharmaceutical Co., Ltd., priority 1996, dated 2001)
Read-outs that look alike come from different tables or passages of the source.

Tests used:
[1] = system: hippocampus neurons; assay: Inhibition of reduction in survival rate of rat embryonic hippocampus neurons in serum-free culture; assay type: cell-based; details: for inhibitory effect against reduction in survival rate of hippocampus neurons (in words): within the range of 1-1,000 ng/ml; for viability at 1 µg/mL / viability at 0.1 µg/mL / viability at 0.01 µg/mL / viability at 0.001 µg/mL / viability at 0.0001 µg/mL: Rattus norvegicus, Neuron, 72 h, read-out: survival rate of neurons (control group taken as 100%); for viability at 1 µg/mL: 10^-6 g/ml
From the text: From a rat at the 18th day of pregnancy (having an 18-day old embryo) the uterus was aseptically removed under etherification, and the fetus was obtained. The whole brain was collected from the fetus. From the brain placed in an L-15 medium, the hippocampus was separated under a microscope and minced with a knife. […] The thus-isolated cells were suspended in Eagle's MEM medium supplemented with 10% fetal calf serum, and inoculated at a concentration of 4×10^4 cells/cm^2 into wells of a 48-well plate which had been coated with poly-L-lysin in advance. […] After three-days' additional incubation, the cells were fixed, stained, and the number of surviving cells in each well was counted.
When the survival rate of the neurons in the control group was taken as 100%: […]

[2] = system: neurites of hippocampus cells; assay: Branching promotion effect on neurites of hippocampus cells; assay type: cell-based, rat; details: number of branches from the longest neurite, one and two days after addition, FIG. 1
Protocol: The hippocampus cells obtained in a manner similar to that in Example 1 were incubated for 24 hours in a medium containing fetal calf serum, then for further 24 hours in a serum-free medium. Subsequently, compound (1-1) was added. When compound (1-1) was added, and at the times of one and two days after addition, photographs were taken of the same cells. The number of branches from the longest neurite was counted.

[3] = Oral acute toxicity (LD50) in rats; details: rat, in vivo, oral administration
[4] = Oral acute toxicity (LD50) in mice; details: mouse, in vivo, oral administration
[5] = three days' incubation, serum-free medium
[6] = 10^-7 g/ml, three days' incubation, serum-free medium
[7] = 10^-8 g/ml, three days' incubation, serum-free medium
[8] = 10^-9 g/ml, three days' incubation, serum-free medium
[9] = 10^-10 g/ml, three days' incubation, serum-free medium

N[C@@H](CS)C(=O)O [L-cysteine, reference compound]
inhibitory effect against reduction in survival rate of hippocampus neurons (in words) [1]: No inhibitory effect

C=CCSc1ccccc1C(=O)O [(1-14)]
viability at 1 µg/mL [1, 5]: 110 to 130% | viability at 0.1 µg/mL [1, 6]: 110 to 130% | viability at 0.01 µg/mL [1, 7]: 90 to 110%

C=CCOCC=C [diallyl ether, reference compound]
inhibitory effect against reduction in survival rate of hippocampus neurons (in words) [1]: No inhibitory effect

C=CCSSC[C@H](N)C(=O)O [(1-4)]
viability at 1 µg/mL [1, 5]: 90 to 110% | viability at 0.1 µg/mL [1, 6]: 130 to 150% | viability at 0.01 µg/mL [1, 7]: 110 to 130% | viability at 0.001 µg/mL [1, 8]: 90 to 110% | viability at 0.0001 µg/mL [1, 9]: 90 to 110%

CSC[C@H](N)C(=O)O [S-methyl-L-cysteine, reference compound]
inhibitory effect against reduction in survival rate of hippocampus neurons (in words) [1]: No inhibitory effect

C=CCSCC[C@H](N)C(=O)O [(1-9)]
viability at 1 µg/mL [1, 5]: 90 to 110% | viability at 0.1 µg/mL [1, 6]: 110 to 130% | viability at 0.01 µg/mL [1, 7]: 90 to 110%

C=CCSC[C@H](NC(=O)CC[C@H](N)C(=O)O)C(=O)NCC(=O)O [(1-7)]
viability at 1 µg/mL [1, 5]: 130 to 150% | viability at 0.1 µg/mL [1, 6]: 130 to 150% | viability at 0.01 µg/mL [1, 7]: 90 to 110% | viability at 0.001 µg/mL [1, 8]: 90 to 110% | viability at 0.0001 µg/mL [1, 9]: 90 to 110%

C=CCSCC=C [(1-11)]
viability at 1 µg/mL [1, 5]: 110 to 130% | viability at 0.1 µg/mL [1, 6]: 110 to 130% | viability at 0.01 µg/mL [1, 7]: 110 to 130% | viability at 0.001 µg/mL [1, 8]: 90 to 110% | viability at 0.0001 µg/mL [1, 9]: 90 to 110%

CCCSC[C@H](N)C(=O)O [S-propyl-L-cysteine, reference compound]
inhibitory effect against reduction in survival rate of hippocampus neurons (in words) [1]: No inhibitory effect

C=CCc1ccc(O)c(OC)c1 [eugenol, reference compound]
inhibitory effect against reduction in survival rate of hippocampus neurons (in words) [1]: No inhibitory effect

C=CCSC(CC(=O)O)C(=O)O (stereo not drawn) [(1-13)]
viability at 1 µg/mL [1, 5]: 110 to 130% | viability at 0.1 µg/mL [1, 6]: 110 to 130% | viability at 0.01 µg/mL [1, 7]: 90 to 110%

CC=CSC[C@H](N)C(=O)O [S-(1-propenyl)-L-cysteine, reference compound]
inhibitory effect against reduction in survival rate of hippocampus neurons (in words) [1]: No inhibitory effect

C[S+]([O-])C[C@H](N)C(=O)O (stereo partly drawn) [S-methyl-L-cysteinesulfoxide, reference compound]
inhibitory effect against reduction in survival rate of hippocampus neurons (in words) [1]: No inhibitory effect

C=CCSC[C@H](N)C(=O)O [Compound (1-1)]
viability at 1 µg/mL [1, 5]: 130 to 150% | viability at 0.1 µg/mL [1, 6]: 130 to 150% | viability at 0.01 µg/mL [1, 7]: 110 to 130% | viability at 0.001 µg/mL [1, 8]: 110 to 130% | viability at 0.0001 µg/mL [1, 9]: 90 to 110% | branching promotion effect on neurites [2]: confirmed to have branching promotion effect on neurites | LD50 [3]: ≥ 1000 mg/kg | LD50 [4]: ≥ 1000 mg/kg

C=CC[S+]([O-])C[C@H](N)C(=O)O (stereo partly drawn) [(1-2)]
viability at 1 µg/mL [1, 5]: 130 to 150% | viability at 0.1 µg/mL [1, 6]: 130 to 150% | viability at 0.01 µg/mL [1, 7]: 110 to 130% | viability at 0.001 µg/mL [1, 8]: 110 to 130% | viability at 0.0001 µg/mL [1, 9]: 90 to 110%

C=CCNC(N)=O [N-allyl urea, reference compound]
inhibitory effect against reduction in survival rate of hippocampus neurons (in words) [1]: No inhibitory effect

C=CCSSCC=C [(1-12)]
viability at 0.0001 µg/mL [1]: 90 to 110% | viability at 0.001 µg/mL [1]: 90 to 110% | viability at 0.01 µg/mL [1]: 110 to 130% | viability at 0.1 µg/mL [1]: 110 to 130%

C#CCSC[C@H](N)C(=O)O [S-propargyl-L-cysteine, reference compound]
inhibitory effect against reduction in survival rate of hippocampus neurons (in words) [1]: No inhibitory effect

C=CCSC[C@H](NC(=O)CC[C@H](N)C(=O)O)C(=O)O [(1-6)]
viability at 1 µg/mL [1, 5]: 130 to 150% | viability at 0.1 µg/mL [1, 6]: 130 to 150% | viability at 0.01 µg/mL [1, 7]: 130 to 150% | viability at 0.001 µg/mL [1, 8]: 90 to 110% | viability at 0.0001 µg/mL [1, 9]: 90 to 110%

C=CCS [(1-10)]
viability at 1 µg/mL [1, 5]: 110 to 130% | viability at 0.1 µg/mL [1, 6]: 110 to 130% | viability at 0.01 µg/mL [1, 7]: 110 to 130% | viability at 0.001 µg/mL [1, 8]: 90 to 110% | viability at 0.0001 µg/mL [1, 9]: 90 to 110%

CCCSSCCC [dipropyldisulfide, reference compound]
inhibitory effect against reduction in survival rate of hippocampus neurons (in words) [1]: No inhibitory effect

C=CCS(=O)(=O)C[C@H](N)C(=O)O [(1-3)]
viability at 1 µg/mL [1, 5]: 130 to 150% | viability at 0.1 µg/mL [1, 6]: 110 to 130% | viability at 0.01 µg/mL [1, 7]: 110 to 130% | viability at 0.001 µg/mL [1, 8]: 110 to 130%

C=CCCSC[C@H](N)C(=O)O [S-(3-butenyl)-L-cysteine, reference compound]
inhibitory effect against reduction in survival rate of hippocampus neurons (in words) [1]: No inhibitory effect

CCCSC[C@H](NC(=O)CC[C@H](N)C(=O)O)C(=O)O [gamma-glutamyl-S-propyl-L-cysteine, reference compound]
inhibitory effect against reduction in survival rate of hippocampus neurons (in words) [1]: No inhibitory effect

C=CCOC(=O)[C@@H](N)CS [O-allyl-L-cysteine, reference compound]
inhibitory effect against reduction in survival rate of hippocampus neurons (in words) [1]: No inhibitory effect

C=CCSc1nc2ccccc2o1 [(1-15)]
viability at 1 µg/mL [1, 5]: 110 to 130% | viability at 0.1 µg/mL [1, 6]: 110 to 130% | viability at 0.01 µg/mL [1, 7]: 90 to 110%

CCCSCCC [dipropylsulfide, reference compound]
inhibitory effect against reduction in survival rate of hippocampus neurons (in words) [1]: No inhibitory effect

C=CCO [allyl alcohol, reference compound]
inhibitory effect against reduction in survival rate of hippocampus neurons (in words) [1]: No inhibitory effect

C=CCNCC(=O)O [allyl glycine, reference compound]
inhibitory effect against reduction in survival rate of hippocampus neurons (in words) [1]: No inhibitory effect

C=CCSC[C@H](NC(C)=O)C(=O)O [(1-5)]
viability at 1 µg/mL [1, 5]: 110 to 130% | viability at 0.1 µg/mL [1, 6]: 110 to 130% | viability at 0.01 µg/mL [1, 7]: 110 to 130% | viability at 0.001 µg/mL [1, 8]: 90 to 110%
